US20040131545A1, “Amyloid plaque aggregation inhibitors and diagnostic imaging agents” (Trustees of the University of Pennsylvania, priority 2001, published 2004)
Values belong to the molecule of their own block, whether it stands above or below them.

What was measured:
aggregates of Aβ(1-40) = target: T1, aggregates of Aβ(1-40) (Homo sapiens, UniProt P05067); assay: Inhibition of [125I]3 binding to aggregated Aβ(1-40) peptide in solution; details: 25° C.; mean±SEM of three independent experiments; read-out: Inhibition constants (Ki) on ligand binding to aggregates of Aβ(1-40) vs [^125I]3
T1 construct: The solid forms of peptides Aβ(1-40) and Aβ(1-42) were purchased; purchased Bachem (King of Prussia, Pa.)
Method: (§1) The solid forms of peptides Aβ(1-40) and Aβ(1-42) were purchased from Bachem (King of Prussia, Pa.). Aggregation of peptides were carried out by gently dissolving the peptide [0.5 mg/mL for Aβ(1-40) and 0.25 mg/mL for Aβ (1-42) in a buffer solution (pH 7.4) containing 10 mM sodium phosphate and 1 mM EDTA. The solutions were incubated at 37° C. for 36-42 h with gentle and constant shaking. Binding studies were carried out in 12×75 mm borosilicate glass tubes according to the procedure described with some modifications (Klunk, W. E., et al., Biol. Psychiatry 35:627 (1994)). Aggregated fibrils (10-50 nM in the final assay mixture) were added to the mixture containing […] of radioligands (0.01-0.5 nM) in 40% EtOH and 10% EtOH in a final volume of 1 mL for saturation studies. […] For inhibition studies, 1 mL of the reaction mixture contained […] of inhibitors (10-5-10-10 M in 10% EtOH) and 0.05 nM radiotracer in 40% EtOH. The mixture was incubated at room temperature for 3 h and the bound and the free radioactivity were separated by vacuum filtration through Whatman GF/B filters using a Brandel M-24R cell harvester followed by 2×3 mL washes of 10% ethanol at room temperature. Filters containing the bound I-125 ligand were counted in a gamma counter (Packard 5000) with 70% counting efficiency. The results of saturation and inhibition experiments were subjected to nonlinear regression analysis using software EBDA52 by which Kd and Ki values were calculated.
(§2) Values are the mean±SEM of three independent experiments, each in duplicates.

aggregates of Aβ(1-42) = target: T2, aggregates of Aβ(1-42) (Homo sapiens, UniProt P05067); assay: Inhibition of [125I]3 binding to aggregated Aβ(1-42) peptide in solution; details: 25° C.; mean±SEM of three independent experiments; read-out: Inhibition constants (Ki) on ligand binding to aggregates of Aβ(1-42) vs [^125I]3
T2 construct: The solid forms of peptides Aβ(1-40) and Aβ(1-42) were purchased; purchased Bachem (King of Prussia, Pa.)
Method: as §1, §2

fibrillar AP aggregates = fibrillar AP aggregates (Homo sapiens, UniProt P05067); details: Mathis et al. 1997; read-out: inhibition constants (K′) for binding to fibrillar AP aggregates; cited from earlier work
[1] = Partition coefficient determination (1-octanol/buffer); type: physicochemical; details: 1-octanol / 0.1 M phosphate buffer pH 7.4, [125I]tracer
Method: The test tube was vortexed for 3 min at room temperature, followed by centrifugation for 5 min. Two weighed samples (0.5 g each) from the 1-octanol and buffer layers were counted in a well counter. The partition coefficient was determined by calculating the ratio of cpm/g of 1-octanol to that of buffer. Samples from the 1-octanol layer were re-partitioned until consistent partitions of coefficient values were obtained. The measurement was done in triplicate and repeated three times.

[2] = In vivo biodistribution in normal mice after iv injection; design: species or system ICR mice; details: for Initial brain uptake / time at which brain uptake peaked / maximum brain uptake: mice; for Initial brain uptake: after an iv injection; for time at which brain uptake peaked / maximum brain uptake / Blood / Brain / Heart / Liver: iv; for maximum brain uptake: peak at 60 min; for Blood / Brain / Heart / Liver: normal mice
Method: While under ether anesthesia, 0.15 mL of a saline solution containing labeled agents ([…]) was injected directly into the tail vein of ICR mice (2-3 month-old, average weight 20-30 g). The mice were sacrificed by cardiac excision at various time points post injection. The organs of interest were removed and weighed, and the radioactivity was counted with an automatic gamma counter (Packard 5000). The percentage dose per organ was calculated by a comparison of the tissue counts to suitably diluted aliquots of the injected material. Total activities of blood and muscle were calculated under the assumption that they were 7% and 40% of the total body weight, respectively.

T1 sequence (P05067 672-711 limits assumed): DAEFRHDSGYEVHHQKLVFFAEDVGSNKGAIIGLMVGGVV
T2 sequence (P05067 672-713 limits assumed): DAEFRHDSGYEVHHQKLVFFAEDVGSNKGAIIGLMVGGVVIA
Chain of fibrillar AP aggregates (P05067 672-711): as the sequence (P05067 672-711 limits assumed) above

- Ki (aggregates of Aβ(1-40)): 1.9 ± 0.3 nM
- Ki (aggregates of Aβ(1-42)): 0.8 ± 0.3 nM
Compound: CN(C)c1ccc(-c2nc3ccc(Br)cc3s2)cc1 [Compound 1, 2-(4′-Dimethylaminophenyl)-6-bromobenzothiazole]

- Ki (aggregates of Aβ(1-40)): 0.9 ± 0.2 nM
- Ki (aggregates of Aβ(1-42)): 2.2 ± 0.4 nM
- Partition Coefficient (PC) [1]: 70
- Initial brain uptake [2]: 0.67 % dose/organ
- time at which brain uptake peaked [2]: 60 min
- maximum brain uptake [2]: 1.57 % dose/organ
Compound: CN(C)c1ccc(-c2nc3ccc(I)cc3s2)cc1 [Compound 3, 2-(4′-Dimethylaminophenyl)-6-iodobenzothiazole]

- Ki (aggregates of Aβ(1-40)): 1.6 ± 0.5 nM
- Ki (aggregates of Aβ(1-42)): 5 ± 0.8 nM
Compound: CN1CCN(c2ccc(-c3nc4ccc(Br)cc4s3)cc2)CC1 [Compound 4, 2-[4′-(4″-Methylpiperazin-1-yl)-phenyl]-6-bromobenzothiazole]

- Blood ([2]; 2 min): 8.02 ± 0.82 % dose/organ
- Brain ([2]; 2 min): 1.50 ± 0.10 % dose/organ
- Heart ([2]; 2 min): 2.19 ± 0.43 % dose/organ
- Liver ([2]; 2 min): 28.84 ± 3.77 % dose/organ
- Blood ([2]; 30 min): 5.15 ± 0.23 % dose/organ
- Brain ([2]; 30 min): 1.59 ± 0.19 % dose/organ
- Heart ([2]; 30 min): 0.69 ± 0.02 % dose/organ
- Liver ([2]; 30 min): 21.22 ± 5.86 % dose/organ
- Blood ([2]; 60 min (1 hr)): 4.16 ± 0.28 % dose/organ
- Brain ([2]; 60 min (1 hr)): 1.89 ± 0.43 % dose/organ
- Heart ([2]; 60 min (1 hr)): 0.66 ± 0.06 % dose/organ
- Liver ([2]; 60 min (1 hr)): 17.20 ± 2.49 % dose/organ
- Blood ([2]; 6 h): 1.49 ± 0.26 % dose/organ
- Brain ([2]; 6 h): 1.08 ± 0.08 % dose/organ
- Heart ([2]; 6 h): 0.22 ± 0.06 % dose/organ
- Liver ([2]; 6 h): 5.79 ± 1.24 % dose/organ
- Blood ([2]; 24 h): 0.41 ± 0.09 % dose/organ
- Brain ([2]; 24 h): 0.91 ± 0.08 % dose/organ
- Heart ([2]; 24 h): 0.08 ± 0.01 % dose/organ
- Liver ([2]; 24 h): 3.05 ± 0.87 % dose/organ
Compound: CN1CCN(c2ccc(-c3nc4ccc([125I])cc4s3)cc2)CC1 [[^125I] Compound 6a]

The next lines start with the molecule.

Compound: O=C(O)c1cc(/N=N/c2ccc(-c3ccc(/N=N/c4ccc(O)c(C(=O)O)c4)cc3)cc2)ccc1O [Chrysamine G, reference compound]
- Ki (aggregates of Aβ(1-40)): > 1000 nM
- Ki (aggregates of Aβ(1-42)): > 2000 nM
- Ki (fibrillar AP aggregates): 370 nM

Compound: CN1CCN(c2ccc(-c3nc4ccc(I)cc4s3)cc2)CC1 [Compound 6a, 2-[4′-(4″-Methylpiperazin-1-yl)-phenyl]-6-iodobenzothiazole]
- Ki (aggregates of Aβ(1-40)): 5.4 ± 0.7 nM
- Ki (aggregates of Aβ(1-42)): 6.4 ± 0.7 nM
- Partition Coefficient (PC) [1]: 312
- Initial brain uptake [2]: 1.50 % dose/organ
- time at which brain uptake peaked [2]: 60 min
- maximum brain uptake [2]: 1.89 % dose/organ

Compound: CN(C)c1ccc(-c2nc3ccc([125I])cc3s2)cc1 [[^125I] Compound 3]
- Blood ([2]; 2 min): 15.74 ± 6.06 % dose/organ
- Brain ([2]; 2 min): 0.67 ± 0.11 % dose/organ
- Heart ([2]; 2 min): 1.79 ± 0.39 % dose/organ
- Liver ([2]; 2 min): 31.62 ± 2.38 % dose/organ
- Blood ([2]; 30 min): 3.26 ± 0.05 % dose/organ
- Brain ([2]; 30 min): 0.97 ± 0.29 % dose/organ
- Heart ([2]; 30 min): 0.20 ± 0.01 % dose/organ
- Liver ([2]; 30 min): 10.93 ± 2.34 % dose/organ
- Blood ([2]; 60 min (1 hr)): 3.79 ± 0.19 % dose/organ
- Brain ([2]; 60 min (1 hr)): 1.57 ± 0.24 % dose/organ
- Heart ([2]; 60 min (1 hr)): 0.17 ± 0.02 % dose/organ
- Liver ([2]; 60 min (1 hr)): 9.21 ± 3.05 % dose/organ
- Blood ([2]; 6 h): 1.44 ± 0.05 % dose/organ
- Brain ([2]; 6 h): 0.65 ± 0.11 % dose/organ
- Heart ([2]; 6 h): 0.05 ± 0.01 % dose/organ
- Liver ([2]; 6 h): 1.52 ± 0.30 % dose/organ
- Blood ([2]; 24 h): 0.29 ± 0.09 % dose/organ
- Brain ([2]; 24 h): 0.04 ± 0.01 % dose/organ
- Heart ([2]; 24 h): 0.01 ± 0.00 % dose/organ
- Liver ([2]; 24 h): 0.30 ± 0.07 % dose/organ
